Source: ChEMBL document CHEMBL5058645, “Data for DCP probe JNJ-6204” (2022)
Blank lines part the entries; values can stand above or below the compound they belong to. The source made the active and inactive calls. No cut-off for these calls is given here.

Assays:
[1] = biological target: Casein kinase I isoform alpha (Homo sapiens, UniProt P48729); assay: CK1alpha(h) Kinase panel
TGF-beta receptor type-1 = TGF-beta receptor type-1 (Homo sapiens, UniProt P36897); assay: TGFBR1(h) Kinase panel
[2] = biological target: Mitogen-activated protein kinase 11 (Homo sapiens, UniProt Q15759); assay: SAPK2b(h) Kinase panel
Mitogen-activated protein kinase 11, sequence (Q15759 whole entry): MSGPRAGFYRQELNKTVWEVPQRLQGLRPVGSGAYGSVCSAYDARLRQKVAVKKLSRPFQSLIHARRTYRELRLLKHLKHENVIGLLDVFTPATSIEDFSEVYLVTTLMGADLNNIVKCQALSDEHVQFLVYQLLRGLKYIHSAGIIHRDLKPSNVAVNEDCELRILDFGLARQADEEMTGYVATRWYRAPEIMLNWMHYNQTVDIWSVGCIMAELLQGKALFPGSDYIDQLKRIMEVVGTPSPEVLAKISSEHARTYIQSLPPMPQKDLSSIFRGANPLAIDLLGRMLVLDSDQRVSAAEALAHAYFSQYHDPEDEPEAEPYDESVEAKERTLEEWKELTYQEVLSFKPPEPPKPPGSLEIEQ

[3] = biological target: Macrophage colony-stimulating factor 1 receptor (Homo sapiens, UniProt P07333); assay: Fms(h) Kinase panel
[4] = biological target: 5'-AMP-activated protein kinase catalytic subunit alpha-2 (Homo sapiens, UniProt P54646); assay: AMPKalpha2(h) Kinase panel
[5] = biological target: T1, Casein kinase I isoform epsilon (Homo sapiens, UniProt P49674); assay: ADP-Glo
T1 sequence (P49674 whole entry, canonical isoform): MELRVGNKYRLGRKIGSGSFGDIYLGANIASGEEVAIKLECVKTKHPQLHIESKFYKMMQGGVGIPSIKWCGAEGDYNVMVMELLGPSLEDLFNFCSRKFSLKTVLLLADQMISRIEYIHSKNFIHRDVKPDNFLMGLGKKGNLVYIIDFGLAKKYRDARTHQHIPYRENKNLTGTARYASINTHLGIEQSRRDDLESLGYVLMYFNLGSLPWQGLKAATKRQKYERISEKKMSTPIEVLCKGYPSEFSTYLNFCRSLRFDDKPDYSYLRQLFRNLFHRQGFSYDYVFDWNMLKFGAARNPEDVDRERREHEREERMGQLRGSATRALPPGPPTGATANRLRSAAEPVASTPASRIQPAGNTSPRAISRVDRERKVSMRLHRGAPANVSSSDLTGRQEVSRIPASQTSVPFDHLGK

[6] = biological target: T1, Casein kinase I isoform epsilon; assay: CK1epsilon(h) Kinase panel
[7] = biological target: TRAF2 and NCK-interacting protein kinase (Homo sapiens, UniProt Q9UKE5); assay: TNIK(h) Kinase panel
[8] = GPCRScan assay: inhibition of GABA/PBR; design: species or system Rattus norvegicus; radioligand conc. used [nm] 0.3 – 2.0, parental cells brain tissue
[9] = biological target: Mitogen-activated protein kinase 14 (Homo sapiens, UniProt Q16539); assay: SAPK2a(h) Kinase panel
Mitogen-activated protein kinase 14, sequence (Q16539 whole entry): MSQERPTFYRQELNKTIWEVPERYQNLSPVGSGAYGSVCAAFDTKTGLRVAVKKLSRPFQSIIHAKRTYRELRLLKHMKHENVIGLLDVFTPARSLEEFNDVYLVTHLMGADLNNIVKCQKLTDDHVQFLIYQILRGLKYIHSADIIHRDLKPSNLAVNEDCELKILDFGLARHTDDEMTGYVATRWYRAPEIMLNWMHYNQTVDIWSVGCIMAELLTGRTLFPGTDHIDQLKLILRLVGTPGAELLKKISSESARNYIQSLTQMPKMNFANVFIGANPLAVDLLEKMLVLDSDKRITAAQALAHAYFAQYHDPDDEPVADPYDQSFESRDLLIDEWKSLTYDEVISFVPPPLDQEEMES

[10] = biological target: Serine/threonine-protein kinase 38-like (Homo sapiens, UniProt Q9Y2H1); assay: NDR2(h) Kinase panel
[11] = biological target: Serine/threonine-protein kinase DCLK2 (Homo sapiens, UniProt Q8N568); assay: DCAMKL2(h) Kinase panel
[12] = biological target: Muscarinic acetylcholine receptor M5 (Homo sapiens) (UniProt P08912); details: Compound concentration 10.0 uM
[13] = biological target: Alpha-2C adrenergic receptor (Homo sapiens) (UniProt P18825); details: Compound concentration 10.0 uM
Alpha-2C adrenergic receptor (Homo sapiens), sequence (P18825 whole entry): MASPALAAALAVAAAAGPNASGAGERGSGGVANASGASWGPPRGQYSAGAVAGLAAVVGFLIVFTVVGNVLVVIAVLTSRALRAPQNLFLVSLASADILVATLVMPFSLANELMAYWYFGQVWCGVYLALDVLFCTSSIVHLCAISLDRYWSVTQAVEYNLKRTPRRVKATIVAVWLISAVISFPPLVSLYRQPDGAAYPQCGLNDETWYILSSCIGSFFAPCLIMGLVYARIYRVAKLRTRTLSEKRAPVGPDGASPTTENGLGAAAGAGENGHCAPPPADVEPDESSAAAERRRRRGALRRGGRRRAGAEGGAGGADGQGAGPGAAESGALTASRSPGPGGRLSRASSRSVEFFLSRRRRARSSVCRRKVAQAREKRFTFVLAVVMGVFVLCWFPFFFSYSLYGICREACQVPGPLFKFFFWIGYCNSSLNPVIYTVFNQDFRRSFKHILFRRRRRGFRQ

[14] = biological target: Muscarinic acetylcholine receptor M4 (Homo sapiens) (UniProt P08173); details: Compound concentration 10.0 uM
Muscarinic acetylcholine receptor M4 (Homo sapiens), sequence (P08173 whole entry): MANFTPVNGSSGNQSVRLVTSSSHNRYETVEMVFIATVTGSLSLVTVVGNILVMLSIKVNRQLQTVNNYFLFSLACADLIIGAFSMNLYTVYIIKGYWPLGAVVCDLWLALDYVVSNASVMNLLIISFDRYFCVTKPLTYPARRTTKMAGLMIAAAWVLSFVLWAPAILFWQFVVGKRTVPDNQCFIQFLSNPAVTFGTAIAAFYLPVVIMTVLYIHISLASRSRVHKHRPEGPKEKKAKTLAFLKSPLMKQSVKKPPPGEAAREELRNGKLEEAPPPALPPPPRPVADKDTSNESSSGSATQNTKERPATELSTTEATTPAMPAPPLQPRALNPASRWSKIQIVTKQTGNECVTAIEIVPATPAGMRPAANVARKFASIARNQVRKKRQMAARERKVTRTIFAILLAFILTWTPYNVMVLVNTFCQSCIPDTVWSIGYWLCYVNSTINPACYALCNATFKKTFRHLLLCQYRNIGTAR

[15] = biological target: 5-hydroxytryptamine receptor 2B (Homo sapiens) (UniProt P41595); details: Compound concentration 10.0 uM
[16] = biological target: Histamine H4 receptor (Homo sapiens) (UniProt Q9H3N8); details: Compound concentration 10.0 uM
[17] = biological target: 5-hydroxytryptamine receptor 3A (Homo sapiens) (UniProt P46098); details: Compound concentration 10.0 uM
[18] = biological target: Sodium-dependent serotonin transporter (Homo sapiens) (UniProt P31645); details: Compound concentration 10.0 uM
[19] = biological target: Mu-type opioid receptor (Homo sapiens) (UniProt P35372); details: Compound concentration 10.0 uM
[20] = biological target: Alpha-1D adrenergic receptor (Homo sapiens) (UniProt P25100); details: Compound concentration 10.0 uM
[21] = biological target: D(4) dopamine receptor (Homo sapiens) (UniProt P21917); details: Compound concentration 10.0 uM
[22] = biological target: Histamine H2 receptor (Homo sapiens) (UniProt P25021); details: Compound concentration 10.0 uM
[23] = biological target: Beta-3 adrenergic receptor (Homo sapiens) (UniProt P13945); details: Compound concentration 10.0 uM
[24] = biological target: D(2) dopamine receptor (Homo sapiens) (UniProt P14416); details: Compound concentration 10.0 uM
[25] = biological target: D(1B) dopamine receptor (Homo sapiens) (UniProt P21918); details: Compound concentration 10.0 uM
[26] = biological target: D(1A) dopamine receptor (Homo sapiens) (UniProt P21728); details: Compound concentration 10.0 uM
[27] = biological target: Alpha-2A adrenergic receptor (Homo sapiens) (UniProt P08913); details: Compound concentration 10.0 uM
[28] = biological target: 5-hydroxytryptamine receptor 1D (Homo sapiens) (UniProt P28221); details: Compound concentration 10.0 uM
[29] = biological target: 5-hydroxytryptamine receptor 5A (Homo sapiens) (UniProt P47898); details: Compound concentration 10.0 uM
5-hydroxytryptamine receptor 5A (Homo sapiens), sequence (P47898 whole entry): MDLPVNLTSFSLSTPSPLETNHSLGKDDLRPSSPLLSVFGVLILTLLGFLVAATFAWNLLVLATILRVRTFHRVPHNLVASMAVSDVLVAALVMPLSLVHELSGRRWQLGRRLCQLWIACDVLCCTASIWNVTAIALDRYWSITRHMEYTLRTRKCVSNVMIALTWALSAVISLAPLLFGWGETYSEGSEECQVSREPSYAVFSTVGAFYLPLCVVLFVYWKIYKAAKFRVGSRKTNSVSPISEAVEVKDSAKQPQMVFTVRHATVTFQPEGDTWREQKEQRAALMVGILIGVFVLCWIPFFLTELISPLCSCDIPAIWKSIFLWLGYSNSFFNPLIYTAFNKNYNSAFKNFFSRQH

[30] = biological target: Alpha-2B adrenergic receptor (Homo sapiens) (UniProt P18089); details: Compound concentration 10.0 uM
[31] = biological target: Beta-1 adrenergic receptor (Homo sapiens) (UniProt P08588); details: Compound concentration 10.0 uM
Beta-1 adrenergic receptor (Homo sapiens), sequence (P08588 whole entry, looked up): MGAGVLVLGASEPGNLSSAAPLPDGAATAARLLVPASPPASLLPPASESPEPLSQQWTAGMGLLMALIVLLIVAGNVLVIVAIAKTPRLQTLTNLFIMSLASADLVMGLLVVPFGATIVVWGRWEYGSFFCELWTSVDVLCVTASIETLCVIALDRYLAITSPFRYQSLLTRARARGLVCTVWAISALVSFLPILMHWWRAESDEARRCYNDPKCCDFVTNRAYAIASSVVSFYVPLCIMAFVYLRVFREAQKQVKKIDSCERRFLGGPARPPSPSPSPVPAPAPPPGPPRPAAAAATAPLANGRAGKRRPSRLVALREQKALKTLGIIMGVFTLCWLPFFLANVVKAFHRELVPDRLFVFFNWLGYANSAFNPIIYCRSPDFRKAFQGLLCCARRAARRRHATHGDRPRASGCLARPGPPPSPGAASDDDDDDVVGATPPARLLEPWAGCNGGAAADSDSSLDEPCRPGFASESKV

[32] = biological target: Sigma non-opioid intracellular receptor 1 (Homo sapiens) (UniProt Q99720); details: Compound concentration 10.0 uM
[33] = biological target: T2, Sodium-dependent dopamine transporter (Homo sapiens, UniProt Q01959); details: Compound concentration 10.0 uM
T2 sequence (Q01959 whole entry): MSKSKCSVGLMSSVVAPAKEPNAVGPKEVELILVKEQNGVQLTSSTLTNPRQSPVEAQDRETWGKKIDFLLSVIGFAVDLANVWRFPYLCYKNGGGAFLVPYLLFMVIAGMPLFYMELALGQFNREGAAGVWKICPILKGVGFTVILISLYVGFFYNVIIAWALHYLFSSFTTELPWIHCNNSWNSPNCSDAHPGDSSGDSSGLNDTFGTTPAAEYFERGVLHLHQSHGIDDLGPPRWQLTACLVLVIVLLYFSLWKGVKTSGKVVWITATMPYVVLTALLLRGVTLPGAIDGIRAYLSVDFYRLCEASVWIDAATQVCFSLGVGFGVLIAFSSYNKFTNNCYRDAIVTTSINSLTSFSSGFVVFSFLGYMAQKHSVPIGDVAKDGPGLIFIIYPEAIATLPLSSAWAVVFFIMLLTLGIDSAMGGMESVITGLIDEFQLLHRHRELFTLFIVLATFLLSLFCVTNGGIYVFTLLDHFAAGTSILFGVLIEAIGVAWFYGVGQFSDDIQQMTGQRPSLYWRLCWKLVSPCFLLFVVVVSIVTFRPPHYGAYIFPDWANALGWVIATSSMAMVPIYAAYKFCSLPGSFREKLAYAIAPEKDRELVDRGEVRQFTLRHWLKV

[34] = biological target: Sodium-dependent noradrenaline transporter (Homo sapiens) (UniProt P23975); details: Compound concentration 10.0 uM
[35] = biological target: Muscarinic acetylcholine receptor M1 (Homo sapiens) (UniProt P11229); details: Compound concentration 10.0 uM
[36] = biological target: T2, Sodium-dependent dopamine transporter; assay: GPCRScan assay: inhibition of DAT; design: radioligand conc. used [nm] 3.6 – 16.0, parental cells stable HEK
[37] = biological target: 5-hydroxytryptamine receptor 1A (Homo sapiens, UniProt P08908); assay: GPCRScan assay: inhibition of 5-HT1A; design: radioligand conc. used [nm] 0.5 – 1.0, parental cells stable CHO
[38] = biological target: 5-hydroxytryptamine receptor 1E (Homo sapiens) (UniProt P28566); details: Compound concentration 10.0 uM
[39] = biological target: 5-hydroxytryptamine receptor 7 (Homo sapiens) (UniProt P34969); details: Compound concentration 10.0 uM
D(3) dopamine receptor [40] = biological target: T3, D(3) dopamine receptor (Homo sapiens, UniProt P35462); assay: GPCRScan assay: inhibition of D3; design: radioligand conc. used [nm] 0.5 – 1.8, parental cells HEKT
T3 sequence (P35462 whole entry): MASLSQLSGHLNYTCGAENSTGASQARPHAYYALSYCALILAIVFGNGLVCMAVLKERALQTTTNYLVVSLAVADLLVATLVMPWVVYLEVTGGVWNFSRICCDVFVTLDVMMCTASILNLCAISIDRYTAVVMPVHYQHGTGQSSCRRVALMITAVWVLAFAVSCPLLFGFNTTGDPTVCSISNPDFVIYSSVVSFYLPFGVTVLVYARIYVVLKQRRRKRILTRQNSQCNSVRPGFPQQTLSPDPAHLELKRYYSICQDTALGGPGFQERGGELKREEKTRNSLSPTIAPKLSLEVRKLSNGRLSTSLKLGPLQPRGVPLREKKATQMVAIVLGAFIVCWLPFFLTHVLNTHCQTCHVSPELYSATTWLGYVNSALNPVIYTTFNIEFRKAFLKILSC

D(3) dopamine receptor [41] = biological target: T3, D(3) dopamine receptor; details: Compound concentration 10.0 uM
[42] = biological target: 5-hydroxytryptamine receptor 2A (Homo sapiens) (UniProt P28223); details: Compound concentration 10.0 uM
[43] = biological target: Casein kinase I isoform delta (Homo sapiens, UniProt P48730); assay: BRET whole cell binding assay
Casein kinase I isoform delta, sequence (P48730 whole entry, canonical isoform): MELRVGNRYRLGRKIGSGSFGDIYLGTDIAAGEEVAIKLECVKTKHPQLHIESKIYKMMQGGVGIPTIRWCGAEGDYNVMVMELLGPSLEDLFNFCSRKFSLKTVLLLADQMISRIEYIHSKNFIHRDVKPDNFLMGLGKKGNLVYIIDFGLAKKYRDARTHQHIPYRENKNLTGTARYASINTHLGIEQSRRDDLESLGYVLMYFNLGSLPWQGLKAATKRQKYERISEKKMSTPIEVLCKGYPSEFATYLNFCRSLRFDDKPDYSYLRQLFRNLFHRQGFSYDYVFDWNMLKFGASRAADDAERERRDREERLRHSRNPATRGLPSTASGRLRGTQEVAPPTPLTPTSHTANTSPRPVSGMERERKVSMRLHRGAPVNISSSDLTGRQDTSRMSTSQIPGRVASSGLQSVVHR

[44] = biological target: Histamine H3 receptor (Homo sapiens) (UniProt Q9Y5N1); details: Compound concentration 10.0 uM
[45] = biological target: Alpha-1B adrenergic receptor (Homo sapiens) (UniProt P35368); details: Compound concentration 10.0 uM
[46] = biological target: Delta-type opioid receptor (Homo sapiens) (UniProt P41143); details: Compound concentration 10.0 uM
Delta-type opioid receptor (Homo sapiens), sequence (P41143 whole entry): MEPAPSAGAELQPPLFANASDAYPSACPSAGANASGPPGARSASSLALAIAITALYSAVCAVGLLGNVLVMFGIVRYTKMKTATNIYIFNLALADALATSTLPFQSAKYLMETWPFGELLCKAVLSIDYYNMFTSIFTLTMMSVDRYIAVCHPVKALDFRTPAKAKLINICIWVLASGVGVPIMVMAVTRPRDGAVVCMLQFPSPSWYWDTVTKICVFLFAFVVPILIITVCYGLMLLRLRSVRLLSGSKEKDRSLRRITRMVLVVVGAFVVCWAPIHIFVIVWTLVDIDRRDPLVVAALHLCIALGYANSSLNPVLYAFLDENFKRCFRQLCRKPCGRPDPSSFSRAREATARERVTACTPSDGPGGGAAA

[47] = biological target: 5-hydroxytryptamine receptor 2C (Homo sapiens) (UniProt P28335); details: Compound concentration 10.0 uM
[48] = biological target: 5-hydroxytryptamine receptor 1B (Homo sapiens) (UniProt P28222); details: Compound concentration 10.0 uM
[49] = biological target: Muscarinic acetylcholine receptor M2 (Homo sapiens) (UniProt P08172); details: Compound concentration 10.0 uM
[50] = biological target: GABA-A receptor; anion channel (Rattus norvegicus) (UniProt O09028+P15431+P18506+P18508+P19969+P20236+P23574+P23576+P28471+P28473+P30191+P62813+P63079+P63138+Q91ZM7+Q9ES14); details: Compound concentration 10.0 uM
[51] = biological target: Muscarinic acetylcholine receptor M3 (Homo sapiens) (UniProt P20309); details: Compound concentration 10.0 uM
[52] = biological target: Sigma intracellular receptor 2 (Homo sapiens) (UniProt Q5BJF2); details: Compound concentration 10.0 uM
Sigma intracellular receptor 2 (Homo sapiens), sequence (Q5BJF2 whole entry): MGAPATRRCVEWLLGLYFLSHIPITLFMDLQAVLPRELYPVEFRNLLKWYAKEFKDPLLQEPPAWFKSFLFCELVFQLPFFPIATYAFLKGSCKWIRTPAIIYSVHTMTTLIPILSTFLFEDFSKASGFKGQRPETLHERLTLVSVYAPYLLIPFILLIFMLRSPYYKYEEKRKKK

[53] = biological target: Histamine H1 receptor (Homo sapiens) (UniProt P35367); details: Compound concentration 10.0 uM
[54] = biological target: Kappa-type opioid receptor (Homo sapiens) (UniProt P41145); details: Compound concentration 10.0 uM

IC50 [1]: 0.419 µM | IC50 (TGF-beta receptor type-1): > 10 µM | IC50 [2]: > 10 µM | IC50 [3]: > 10 µM | IC50 [4]: > 10 µM | IC50 [5]: 0.137 µM (active) | IC50 [6]: 0.137 µM | IC50 [7]: 1.7 µM | Ki [8]: 4.53 µM | pKi [8]: 5.34 | IC50 [9]: > 10 µM | IC50 [10]: > 10 µM | IC50 [11]: > 10 µM
SMILES: [2H]C([2H])([2H])C1(C([2H])([2H])[2H])Cn2nc(-c3ccc(F)cn3)c(-c3ccnc4[nH]ncc34)c2CO1

inhibition [12]: 12.5% | inhibition [13]: -5.28% | inhibition [14]: 0.72% | inhibition [15]: 9.41% | inhibition [16]: 31.6% | inhibition [17]: 1.67% | inhibition [18]: -2.06% | inhibition [19]: -0.34% | inhibition [20]: 12.7% | inhibition [21]: 48.1% | inhibition [22]: -7.88% | inhibition [23]: 12.3% | inhibition [24]: 16.9% | inhibition [25]: 3.57% | inhibition [26]: 5.63% | inhibition [27]: 19.6% | inhibition [28]: 11.3% | inhibition [29]: 5.31% | inhibition [30]: 9.43% | inhibition [31]: 14.9% | inhibition [32]: 13% | inhibition [33]: 72.5% | inhibition [34]: 3.24% | inhibition [35]: 14.2% | Ki ([36]; read-out: Ki): 7.22 µM | Ki ([36]; read-out: pKi (converted)): 7.24 µM | Ki [37]: 7.66 µM | inhibition [38]: 11% | inhibition [39]: 2.11% | Ki (D(3) dopamine receptor [40]): 8.63 µM | inhibition (D(3) dopamine receptor [41]): 71% | inhibition [42]: 0.96% | IC50 [43]: > 10 µM (not active) | inhibition [44]: -2.3% | inhibition [45]: 35.2% | inhibition [46]: -4.05% | inhibition [47]: 2.17% | inhibition [48]: 3.69% | inhibition [49]: -5.08% | inhibition [50]: 18.2% | inhibition [51]: 0.71% | inhibition [52]: -2.71% | inhibition [53]: 12.5% | inhibition [54]: 5.15%
SMILES: Cn1cc2c(-c3c(-c4ccc(F)cn4)nn4c3COC(C)(C)C4)ccnc2n1
